Reference: US7932284B2, “Indole sulfonamide modulators of progesterone receptors” (Eli Lilly and Company, priority 2006, dated 2011)
pIC50: −log10 of the molar value.

Columns and labels:
[1] = system: uterine endometrial transformation; test: McPhail Assay; format: in vivo, New Zealand White Rabbits; details: rabbits; for McPhail Index** @ 10 mpk (Antagonist Mode): in combination with progesterone on days 7-12, antagonist mode; for McPhail Index** @ 30 mpk (Agonist Mode): compound alone on days 7-12, agonist mode
Method: The effects of progesterone receptor modulators on uterine endometrial transformation are evaluated in New Zealand White Rabbits (Harlan, 800-900 g) using the McPhail assay adapted from McPhail, MK. J Physiol, 1934:145-156. To evaluate antagonistic effects of compounds, the rabbits are treated sc with cyclodextrin-encapsulated 17-β-estradiol (Sigma, 10.52 ug/kg/day in 1 ml of saline) on days 1-6. The rabbits are then treated sc with progesterone (Sigma, 1.0 mg/kd/day in 1 ml of corn oil) in combination with compound of the present invention (in 15% Povidone K12, 10% Pluronic F68 (poloxamer 188) in deionized water (DIW): probe sonicated to mean<2 micron, 3 ml dose volume) on days 7-12. To evaluate agonist effects of compound, the rabbits are treated with either a compound of interest or progesterone alone on days 7-12. On day 13 the animals are sacrificed, uteri removed and fixed in zinc formalin (Richard-Allan Scientific). The fixed uteri are sectioned into 2-3 mm transverse slices and stained with haematoxylin and eosin. A total of six slices (a proximal, medial and distal section from each uterine horn) are evaluated histologically and the progestational effect is scored using the McPhail index. The McPhail test can be used to identify SPRMs.

[2] = system: uterine C3 expression (complement 3 mRNA; PR antagonist potential); test: C3 Rat Uterine Assay; format: in vivo, Sprague Dawley female rats; details: immature female rats, oral gavage, with R5020 0.1 mg/kg sc and ethynyl estradiol 50 ug/kg, 3 doses at 24 hour intervals
Method: Addition of a potential PR antagonist can then neutralize the blocking effect of the PR agonist, resulting in a measurable increase in uterine C3 expression.
Immature Sprague Dawley female rats (21 days old, each approximately 50 g in weight) are first administered the R5020 progestin subcutaneously in sesame oil vehicle at 0.1 mg/kg. The rats are then treated with ethynyl estradiol at a dose of 50 ug/kg plus a compound of interest at doses ranging from 1-30 mg/kg made up in 20% β-hydroxycyclodextran in water for an oral gavage volume of 0.3 ml. This dosing is done 3 times at 24 hour intervals. The control groups include rats treated with one of the following (administered and dosed as described above): 1) estrogen (E2) vehicle+R5020 vehicle, 2) E2+R5020 vehicle, 3) E2+R5020, and 4) E2+R5020+asoprisnil (comparator compound, 5 mg/kg). The rats are sacrificed by decapitation 2 hours after the final dose (50 hours total dosing time). Uteri are removed and cleaned of adipose tissue, and ½ (1 uterine horn) is flash-frozen in liquid nitrogen. The tissue is homogenized in TRIzol reagent using lysing matrix beads.
The RNA is isolated by chloroform extraction of the homogenized tissue, followed by isopropanol precipitation of the aqueous layer. The RNA is further purified by binding to a silica-gel based membrane or magnetic bead with a nucleic acid binding surface, and then eluted off with water. The RNA is converted to single strand cDNA via reverse transcriptase. These cDNA templates are analyzed by quantitative real-time PCR which multiplexes the C3 primer/probe set to an endogenous control gene. The resulting C3 data is normalized to the internal control. (Adapted from Lundeen, S. G. et al. J. Steroid Biochemistry and Molecular Biology, 2001, 78, 137-143.) Table 9 below provides data for representative compounds prepared according to the present invention.

[3] = target: T1, human progesterone receptor (PR) (Homo sapiens, UniProt P06401); test: PR CTF assay (co-transfected HEK293 cells, GRE-luciferase reporter); format: cell-based; details: antagonist mode, with 0.05-0.08 nM R5020, 24 h
T1 construct: expressed in transfected cells; host or cells: HEK293
T1 sequence (P06401 1-933): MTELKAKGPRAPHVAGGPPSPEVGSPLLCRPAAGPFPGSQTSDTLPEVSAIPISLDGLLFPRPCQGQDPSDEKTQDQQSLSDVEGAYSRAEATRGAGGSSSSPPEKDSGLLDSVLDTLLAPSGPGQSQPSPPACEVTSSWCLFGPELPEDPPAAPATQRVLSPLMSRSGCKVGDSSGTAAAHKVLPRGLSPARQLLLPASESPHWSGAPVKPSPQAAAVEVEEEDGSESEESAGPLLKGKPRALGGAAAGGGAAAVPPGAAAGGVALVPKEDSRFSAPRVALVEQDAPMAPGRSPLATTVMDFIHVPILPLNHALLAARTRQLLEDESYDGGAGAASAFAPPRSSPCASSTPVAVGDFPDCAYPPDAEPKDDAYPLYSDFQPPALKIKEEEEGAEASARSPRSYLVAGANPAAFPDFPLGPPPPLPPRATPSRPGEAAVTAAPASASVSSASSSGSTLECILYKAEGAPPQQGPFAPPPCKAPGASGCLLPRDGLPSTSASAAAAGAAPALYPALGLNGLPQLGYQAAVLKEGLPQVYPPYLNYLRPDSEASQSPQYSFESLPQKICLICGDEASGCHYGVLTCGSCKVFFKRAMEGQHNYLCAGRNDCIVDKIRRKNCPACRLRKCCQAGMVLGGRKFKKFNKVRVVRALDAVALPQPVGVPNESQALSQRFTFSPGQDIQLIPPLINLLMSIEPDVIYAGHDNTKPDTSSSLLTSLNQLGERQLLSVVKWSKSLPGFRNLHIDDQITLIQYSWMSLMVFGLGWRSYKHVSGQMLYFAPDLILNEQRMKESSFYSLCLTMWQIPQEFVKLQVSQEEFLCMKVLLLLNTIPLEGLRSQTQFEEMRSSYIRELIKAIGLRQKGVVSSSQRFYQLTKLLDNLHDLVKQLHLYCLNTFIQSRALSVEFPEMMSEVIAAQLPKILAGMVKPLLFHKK
Method: Human embryonic kidney HEK293 cells are co-transfected using Fugene. Briefly, the reporter plasmid pGL3 containing two copies of GRE (glucocorticoid response element ^5'[NT]3) and TK promoter upstream of the luciferase reporter cDNA is transfected with a plasmid constitutively expressing human progesterone receptor (PR), using viral CMV promoter. Cells are transfected in T225 cm^2 flasks in DMEM media with 5% charcoal-stripped Fetal Bovine Serum (FBS). After an overnight incubation, transfected cells are trypsinized, plated in 96 well dishes in DMEM media containing 5% charcoal-stripped FBS, incubated for 4 h and then exposed to various concentrations of test compounds in 1:4 dilution increments. In the antagonist assays low concentrations of agonist (0.05-0.08 nM of R5020) is also added to the media. After 24 h of incubation with compounds, cells are lysed and luciferase activity is determined. Data is fit to a 4 parameter-fit logistics curve to determine EC50 and IC50 values. The % efficacy is determined versus maximum stimulation obtained with 30 nM R5020. In the antagonist mode the % inhibition is determined verses the effects of 30 nM R5020 alone.

Structure (SMILES) | melting point [°C] | McPhail Index** @ 10 mpk (Antagonist Mode) [1] | McPhail Index** @ 30 mpk (Agonist Mode) [1] | ED50 [2] [mg/kg] | pIC50 [3]
CCn1nc(C#N)cc1-c1cn(C(C)C)c2cc(NS(C)(=O)=O)ccc12 [Example 124, N-[3-(5-Cyano-2-ethyl-2H-pyrazol-3-yl)-1-isopropyl-1H-indol-6-yl]-methanesulfonamide] | 144 to 145 | – | – | – | –
CC(C)n1cc(-c2cc(C#N)nn2C)c2ccc(NS(C)(=O)=O)cc21 [Example 121, N-[3-(5-Cyano-2-methyl-2H-pyrazol-3-yl)-1-isopropyl-1H-indol-6-yl]-methanesulfonamide] | 189 to 191 | – | – | – | –
CC(C)n1cc(-c2ccc(C#N)c(Cl)c2)c2ccc(NS(C)(=O)=O)cc21 [Example 50, N-[3-(4-Cyano-3-chloro-phenyl)-1-isopropyl-1H-indol-6-yl]-methanesulfonamide] | – | + (+ <2) | + (+ <2) | < 5 | –
CCCCn1cc(-c2ccc(C#N)c(F)c2)c2ccc(NS(C)(=O)=O)cc21 [Example 53, N-[1-Butyl-3-(4-cyano-3-fluoro-phenyl)-1H-indol-6-yl]-methanesulfonamide] | – | +++ (+++ ≧3) | ++ (++ 2-3) | > 10 | –
CC(C)n1cc(-c2ccc([N+](=O)[O-])cc2)c2ccc(NS(C)(=O)=O)cc21 [Example 197, N-[1-Isopropyl-3-(4-nitro-phenyl)-1H-indol-6-yl]-methanesulfonamide] | – | ++ (++ 2-3) | + (+ <2) | < 5 | –
CC(C)n1cc(-c2ccc(C#N)nc2)c2ccc(NS(C)(=O)=O)cc21 [Example 48, N-[3-(6-Cyano-pyridin-3-yl)-1-isopropyl-1H-indol-6-yl]-methanesulfonamide] | – | + (+ <2) | + (+ <2) | < 5 | ~7.93
Cc1cc(-c2cn(C(C)C)c3cc(NS(C)(=O)=O)ccc23)ccc1C#N [Ex 49, N-[3-(4-Cyano-3-methyl-phenyl)-1-isopropyl-1H-indol-6-yl]-methanesulfonamide] | – | – | – | < 5 | –
CC(C)n1cc(-c2cc(F)c(C#N)c(F)c2)c2ccc(NS(C)(=O)=O)cc21 [Example 170, N-[3-(4-Cyano-3,5-difluoro-phenyl)-1-isopropyl-1H-indol-6-yl]-methanesulfonamide] | – | +++ (+++ ≧3) | +++ (+++ ≧3) | < 5 | –
